Species on record: Rattus norvegicus
Test: DrugMatrix - Regimen: Daily Repeat
Assay type: toxicity, organism-based, Sprague-Dawley
Parameters: regimen Daily Repeat, gender Male, age 6-8 weeks
Conditions: in vivo, po, route oral GAVAGE, vehicle .5 % CMC; for BASOPHIL / EOSINOPHIL / ERYTHROCYTE COUNT / HEMATOCRIT / HEMOGLOBIN / LEUKOCYTE COUNT / LYMPHOCYTE / MEAN CORPUSCULAR HEMOGLOBIN / MEAN CORPUSCULAR HEMOGLOBIN CONCENTRATION / MEAN CORPUSCULAR VOLUME / MONOCYTE / NEUTROPHIL / PLATELET COUNT: tissue Blood; for ALANINE AMINOTRANSFERASE / ALBUMIN / ALKALINE PHOSPHATASE / ASPARTATE AMINOTRANSFERASE / BLOOD UREA NITROGEN / CHLORIDE / CHOLESTEROL / CREATINE PHOSPHOKINASE / CREATININE / GLUCOSE / PHOSPHORUS / POTASSIUM / SODIUM / TOTAL BILIRUBIN / TOTAL PROTEIN: tissue Plasma
[1] = 0 mg/kg, 72 h, dose level Control, time 3 day
[2] = 0 mg/kg, 120 h, dose level Control, time 5 day
[3] = 75 mg/kg, 72 h, dose level High, time 3 day
[4] = 75 mg/kg, 120 h, dose level High, time 5 day
[5] = […], 72 h, dose 7.5 mg/Kg, dose level Low, time 3 day
[6] = […], 120 h, dose 7.5 mg/Kg, dose level Low, time 5 day

## COc1ccc(C2C(=O)c3ccccc3C2=O)cc1 [ANISINDIONE]
[1]
  BASOPHIL: 0%
  EOSINOPHIL: 0%
  ERYTHROCYTE COUNT: 6.19 x10E6/uL
  HEMATOCRIT: 36.94%
  HEMOGLOBIN: 14.58 G/DL
  LEUKOCYTE COUNT: 11.54 x10E3/uL
  LYMPHOCYTE: 84.8%
  MEAN CORPUSCULAR HEMOGLOBIN: 23.58 pg
  MEAN CORPUSCULAR HEMOGLOBIN CONCENTRATION: 39.44 G/DL
  MEAN CORPUSCULAR VOLUME: 59.76 fL
  MONOCYTE: 1.4%
  NEUTROPHIL: 13.8%
  PLATELET COUNT: 1068.8 x10E3/uL
  ALANINE AMINOTRANSFERASE: 38.17 u/L
  ALBUMIN: 3.88 G/DL
  ALKALINE PHOSPHATASE: 391.33 u/L
  ASPARTATE AMINOTRANSFERASE: 69.83 u/L
  BLOOD UREA NITROGEN: 15 mg/dL
  CHLORIDE: 104.17 MEQ/L
  CHOLESTEROL: 72.17 mg/dL
  CREATINE PHOSPHOKINASE: 174.33 u/L
  CREATININE: 0.58 mg/dL
  GLUCOSE: 192.67 mg/dL
  PHOSPHORUS: 10.52 mg/dL
  POTASSIUM: 6.8 MEQ/L
  SODIUM: 149.67 MEQ/L
  TOTAL BILIRUBIN: 0.78 mg/dL
  TOTAL PROTEIN: 6.28 G/DL
[2]
  BASOPHIL: 0%
  EOSINOPHIL: 0.17%
  ERYTHROCYTE COUNT: 6.72 x10E6/uL
  HEMATOCRIT: 40.02%
  HEMOGLOBIN: 15.83 G/DL
  LEUKOCYTE COUNT: 9.5 x10E3/uL
  LYMPHOCYTE: 87.17%
  MEAN CORPUSCULAR HEMOGLOBIN: 23.57 pg
  MEAN CORPUSCULAR HEMOGLOBIN CONCENTRATION: 39.62 G/DL
  MEAN CORPUSCULAR VOLUME: 59.55 fL
  MONOCYTE: 1.67%
  NEUTROPHIL: 11%
  PLATELET COUNT: 1053.67 x10E3/uL
  ALANINE AMINOTRANSFERASE: 26.33 u/L
  ALBUMIN: 4.02 G/DL
  ALKALINE PHOSPHATASE: 316.67 u/L
  ASPARTATE AMINOTRANSFERASE: 61.33 u/L
  BLOOD UREA NITROGEN: 18.67 mg/dL
  CHLORIDE: 108 MEQ/L
  CHOLESTEROL: 65.17 mg/dL
  CREATINE PHOSPHOKINASE: 161.17 u/L
  CREATININE: 0.75 mg/dL
  GLUCOSE: 177.33 mg/dL
  PHOSPHORUS: 9.72 mg/dL
  POTASSIUM: 6.18 MEQ/L
  SODIUM: 150.5 MEQ/L
  TOTAL BILIRUBIN: 0.68 mg/dL
  TOTAL PROTEIN: 6.55 G/DL
[3]
  BASOPHIL: 0%
  EOSINOPHIL: 0.33%
  ERYTHROCYTE COUNT: 6.08 x10E6/uL
  HEMATOCRIT: 36.9%
  HEMOGLOBIN: 14.87 G/DL
  LEUKOCYTE COUNT: 12.97 x10E3/uL
  LYMPHOCYTE: 73.67%
  MEAN CORPUSCULAR HEMOGLOBIN: 24.43 pg
  MEAN CORPUSCULAR HEMOGLOBIN CONCENTRATION: 40.3 G/DL
  MEAN CORPUSCULAR VOLUME: 60.63 fL
  MONOCYTE: 4.67%
  NEUTROPHIL: 21.33%
  PLATELET COUNT: 1074.33 x10E3/uL
  ALANINE AMINOTRANSFERASE: 32.33 u/L
  ALBUMIN: 3.7 G/DL
  ALKALINE PHOSPHATASE: 312.67 u/L
  ASPARTATE AMINOTRANSFERASE: 70.67 u/L
  BLOOD UREA NITROGEN: 16.67 mg/dL
  CHLORIDE: 102.67 MEQ/L
  CHOLESTEROL: 62.67 mg/dL
  CREATINE PHOSPHOKINASE: 163 u/L
  CREATININE: 0.7 mg/dL
  GLUCOSE: 161.33 mg/dL
  PHOSPHORUS: 10.17 mg/dL
  POTASSIUM: 6.4 MEQ/L
  SODIUM: 147 MEQ/L
  TOTAL BILIRUBIN: 0.57 mg/dL
  TOTAL PROTEIN: 5.87 G/DL
[4]
  BASOPHIL: 0%
  EOSINOPHIL: 0.5%
  ERYTHROCYTE COUNT: 6.19 x10E6/uL
  HEMATOCRIT: 36.1%
  HEMOGLOBIN: 14.4 G/DL
  LEUKOCYTE COUNT: 13.5 x10E3/uL
  LYMPHOCYTE: 85.5%
  MEAN CORPUSCULAR HEMOGLOBIN: 23.25 pg
  MEAN CORPUSCULAR HEMOGLOBIN CONCENTRATION: 39.9 G/DL
  MEAN CORPUSCULAR VOLUME: 58.3 fL
  MONOCYTE: 1.5%
  NEUTROPHIL: 12.5%
  PLATELET COUNT: 1096 x10E3/uL
  ALANINE AMINOTRANSFERASE: 36.5 u/L
  ALBUMIN: 3.75 G/DL
  ALKALINE PHOSPHATASE: 318 u/L
  ASPARTATE AMINOTRANSFERASE: 61.5 u/L
  BLOOD UREA NITROGEN: 14 mg/dL
  CHLORIDE: 104 MEQ/L
  CHOLESTEROL: 40.5 mg/dL
  CREATINE PHOSPHOKINASE: 138.5 u/L
  CREATININE: 0.55 mg/dL
  GLUCOSE: 161 mg/dL
  PHOSPHORUS: 10.3 mg/dL
  POTASSIUM: 6.15 MEQ/L
  SODIUM: 150 MEQ/L
  TOTAL BILIRUBIN: 0.55 mg/dL
  TOTAL PROTEIN: 6.2 G/DL
[5]
  BASOPHIL: 0%
  EOSINOPHIL: 1%
  ERYTHROCYTE COUNT: 6.37 x10E6/uL
  HEMATOCRIT: 38.8%
  HEMOGLOBIN: 15.33 G/DL
  LEUKOCYTE COUNT: 10.33 x10E3/uL
  LYMPHOCYTE: 83.67%
  MEAN CORPUSCULAR HEMOGLOBIN: 24.07 pg
  MEAN CORPUSCULAR HEMOGLOBIN CONCENTRATION: 39.53 G/DL
  MEAN CORPUSCULAR VOLUME: 60.9 fL
  MONOCYTE: 3.33%
  NEUTROPHIL: 12%
  PLATELET COUNT: 1127.67 x10E3/uL
  ALANINE AMINOTRANSFERASE: 31.33 u/L
  ALBUMIN: 3.87 G/DL
  ALKALINE PHOSPHATASE: 294.67 u/L
  ASPARTATE AMINOTRANSFERASE: 62.33 u/L
  BLOOD UREA NITROGEN: 14.33 mg/dL
  CHLORIDE: 103.67 MEQ/L
  CHOLESTEROL: 76 mg/dL
  CREATINE PHOSPHOKINASE: 156 u/L
  CREATININE: 0.7 mg/dL
  GLUCOSE: 185.67 mg/dL
  PHOSPHORUS: 12.2 mg/dL
  POTASSIUM: 7.33 MEQ/L
  SODIUM: 149.67 MEQ/L
  TOTAL BILIRUBIN: 0.53 mg/dL
  TOTAL PROTEIN: 6.23 G/DL
[6]
  BASOPHIL: 0%
  EOSINOPHIL: 0%
  ERYTHROCYTE COUNT: 6.33 x10E6/uL
  HEMATOCRIT: 38.27%
  HEMOGLOBIN: 15.1 G/DL
  LEUKOCYTE COUNT: 12.9 x10E3/uL
  LYMPHOCYTE: 81.33%
  MEAN CORPUSCULAR HEMOGLOBIN: 23.87 pg
  MEAN CORPUSCULAR HEMOGLOBIN CONCENTRATION: 39.47 G/DL
  MEAN CORPUSCULAR VOLUME: 60.5 fL
  MONOCYTE: 2.33%
  NEUTROPHIL: 16.33%
  PLATELET COUNT: 999.67 x10E3/uL
  ALANINE AMINOTRANSFERASE: 37 u/L
  ALBUMIN: 3.87 G/DL
  ALKALINE PHOSPHATASE: 349.67 u/L
  ASPARTATE AMINOTRANSFERASE: 67.67 u/L
  BLOOD UREA NITROGEN: 14 mg/dL
  CHLORIDE: 104 MEQ/L
  CHOLESTEROL: 70.33 mg/dL
  CREATINE PHOSPHOKINASE: 150.33 u/L
  CREATININE: 0.7 mg/dL
  GLUCOSE: 172 mg/dL
  PHOSPHORUS: 10.37 mg/dL
  POTASSIUM: 6.23 MEQ/L
  SODIUM: 149.67 MEQ/L
  TOTAL BILIRUBIN: 0.57 mg/dL
  TOTAL PROTEIN: 6.2 G/DL
